Source: patent publication EP4775570A1, “CYP11A1 INHIBITOR, PREPARATION METHOD THEREFOR AND USE THEREOF” (Shenzhen Zhongge Biological Technology Co., Ltd., priority 2023, dated 2025)

Columns and labels:
[1] = PK study, intravenous and oral administration, plasma LC-MS/MS; assay type: in vivo; conditions: both sexes, 5 mg/kg, oral administration of 5 mpk, species not given (ICR mice or SD Rat); for half-life: read-out: half-life (t1/2) (converted); for bioavailability: read-out: bioavailability (F)
Description: ICR mice (male/female, total 6 animals) were assigned to two groups for oral administration and intravenous administration, respectively, with 3 mice in each group. Before administration, the animals were fasted for 10-14 hours, with water available ad lib.
SD Rat (male/female, total 6 animals) were assigned to two groups for oral administration and intravenous administration, respectively, with 3 mice in each group. Before administration, the animals were fasted for 10-14 hours, with water available ad lib.
The compounds to be tested were weighed out in accordance with intended dosage, formulated with vehicles (5% DMSO + 10% Solutol + 85% physiological saline) to dosage form at appropriate concentrations (administered intravenously and orally in rats or mice at a volume of 5 mL/kg and 10 mL/kg, respectively). The dosage form for intravenous injection is a clear solution, and the dosage form for oral administration is a clear solution or homogenous suspension.
Administration to animals was conducted through intravenous injection and oral gavage, and blood samples were collected at 0.033, 0.083, 0.25, 0.5, 1, 2, 4, 8, and 24 hours after intravenous injection, or at 0.083, 0.25, 0.5, 1, 2, 4, 6, 8, and 24 hours after oral administration. After centrifugation of whole blood samples at 4°C and 6,800g for 6 minutes, the upper layers of plasma were stored at -80°C refrigerator before analysis.
The DMSO stock solutions of the substance to be tested were diluted with methanol or acetonitrile solution to serial working solutions and added to blank plasma matrix to formulate samples for standard curve and quality control. An appropriate volume of plasma sample was added with appropriate fold of methanol or acetonitrile containing internal standards, according to response, for protein precipitation. After centrifugation of all samples at 4°C and 18,000g for 10 min, appropriate volumes of supernatant were taken for LC-MS/MS analysis.
Plasma drug concentration-time curves were plotted in accordance with tested concentrations, and pharmacokinetic parameters were calculated based on non-compartmental model using WinNonlin software, including half-life (T1/2), area under the drug concentration-time curve (AUC0-t), clearance rate (CL), steady-state distribution volume (Vss), bioavailability (F), etc.

CYP11A1 = biological target: T1, CYP11A1 (Homo sapiens, UniProt P05108); experiment: NCI-H295R cellular pregnenolone biosynthesis inhibition assay (ELISA method); assay type: cell-based; conditions: NCI-H295R cells, 3 days incubation, pregnenolone in cell supernatant by ELISA; read-out: IC50
T1 construct: host or cells: NCI-H295R
T1 sequence (P05108 40-521): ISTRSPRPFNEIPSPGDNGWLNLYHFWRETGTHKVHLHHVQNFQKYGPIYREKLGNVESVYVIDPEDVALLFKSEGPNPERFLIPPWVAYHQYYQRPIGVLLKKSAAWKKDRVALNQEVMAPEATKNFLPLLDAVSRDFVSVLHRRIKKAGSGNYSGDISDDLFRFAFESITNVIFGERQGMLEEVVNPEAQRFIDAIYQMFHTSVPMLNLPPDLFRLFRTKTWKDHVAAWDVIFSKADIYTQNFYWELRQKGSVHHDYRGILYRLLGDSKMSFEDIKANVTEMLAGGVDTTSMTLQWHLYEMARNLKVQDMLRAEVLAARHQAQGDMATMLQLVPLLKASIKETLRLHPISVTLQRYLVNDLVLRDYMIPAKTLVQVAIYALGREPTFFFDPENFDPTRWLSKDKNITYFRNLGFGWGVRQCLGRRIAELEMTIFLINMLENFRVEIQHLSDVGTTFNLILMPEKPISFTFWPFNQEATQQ
Description: The experiment aims to test the inhibitory effect of the compounds of the present disclosure on cellular pregnenolone biosynthesis, and to assess the inhibitory effect of the compounds on CYP11A1 target based on their IC50 values.
NCI-H295R cells (MINGZHOUBIO, MZ-2138) cultured in NCI-H295R complete medium (MINGZHOUBIO, MCM-0399).
Using culture medium, NCI-H295R cells were seeded into a new 384-well cell culture plate (Greiner, 781091) at a density of 5,000 cells per well, with 45µL of cell suspension per well. The test compounds were prepared by adding 5µL of compound solution at 10× concentration to each well, to a maximum final concentration of 10µM, followed by 3× serial dilution for 10 points, with a final DMSO concentration of 0.1%, centrifuging at 1,000 rpm for 1 minute at room temperature, and then incubating in a 5% CO2 cell incubator at 37°C for 3 days.
Pregnenolone ELISA kit (Abnova, KA1912) was used for detecting the content of pregnenolone in the supernatant of cell culture. Before detection, the reagents were allowed to come back to room temperature for 1 hour. After taking out the 384-well plate, the cellular supernatant was pipetted and subjected to 5× dilution with the Assay Buffer provided in the kit. A working solution of competitive molecule and a washing solution in accordance with the instructions was prepared. 50µL of diluted cellular supernatant were pipetted into the 96-well plate provided in the ELISA kit, added with 100µL of working solution of competitive molecule per well and the plate was incubated at room temperature for 1.5 hours. After discarding the liquid, the plate was washed with 300µL of washing solution per well three times and dried. After adding 150 µL of substrate chromogenic solution per well, the plate was incubated at room temperature for 10-15 minutes. After adding 50 µL of termination solution per well, the plate was incubated at room temperature for 10-15 minutes and read for absorbance at 450nm with Envision HTS Multilabel Reader.
The wells added with 1µM ODM-208 were defined as 100% inhibition (positive control), the wells containing DMSO at a final concentration of 0.1% were defined as 0% inhibition (negative control), and inhibitory ratio = (absorbance of tested sample - average absorbance of negative control)/(average absorbance of positive control - average absorbance of negative control)*100%. The data were subjected to four-parameter fitting using GraphPad Prism to calculate the IC50 values of the compounds.

Row | AUC [1] [ng·h/mL] | half-life [1] [h] | IC50 (CYP11A1) [nM] | bioavailability [1] [%] | Cmax [1] [ng/mL] | SMILES
1 | > 1700 | > 3 | < 100 |  |  | COc1cc(CN2Cc3ccccc3C2)ccc1CCC1CCN(S(C)(=O)=O)CC1 [compound 53]
2 | > 1700 | > 3 | < 100 | > 60 |  | Cn1c(CN2Cc3ccccc3C2)c(F)cc(CCC2CCN(S(C)(=O)=O)CC2)c1=O [compound 72]
3 | > 1700 |  | < 100 | > 60 | > 1000 | Cn1c(CN2Cc3ccccc3C2)c(F)cc(C=CC2CCN(C(=O)CC#N)CC2)c1=O [compound 112]
